Measurements taken from PMC8991007, “Benzylic Dehydroxylation of Echinocandin Antifungal Drugs Restores Efficacy against Resistance Conferred by Mutated Glucan Synthase” (Journal of the American Chemical Society, 2022).
Converted amounts (≈) assume the structure as drawn. Read-outs that look alike come from different tables or passages of the source. *1 amine or outer side, *2 acyl side, *3 side chain or, on linkers, in order; H or OH if unused. Where a SMILES comes first, the peptide text is derived from it. Bridges are numbered along the chain shown (N, C = ends). [ ]: non-standard residue; d: D form. The star is where a group is joined. pTerphenylCO(4''-OnC5H11) = CCCCCOc1ccc(-c2ccc(-c3ccc(C(=O)*)cc3)cc2)cc1; Orn(4R-OH,5R-OH) = O=C([C@H](C[C@@H](O)[C@@H](O)N[*:3])N[*:1])[*:2]; hTyr(3S-OH,4S-OH) = N[C@H](C(=O)O)[C@H](O)[C@@H](O)c1ccc(O)cc1; Pro(3S-OH,4S-Me) = C[C@H]1CN[C@H](C(=O)O)[C@H]1O; Hyp = O=C(O)[C@@H]1C[C@@H](O)CN1

Assays:
[1] = system: C. albicans; assay: Minimum inhibitory concentration broth double-dilution assay; assay type: cell-based, Candida albicans; settings: 24 h, 30 °C
Experimental: (§1) The antifungal activities of compounds 1 and 2 were evaluated against a panel of 50 strains of C. albicans and C. glabrata (Table S4), including echinocandin-resistant strains that were constructed by introducing mutations within and near the defined hotspots in the FKS1 and/or FKS2 genes.[27] To evaluate antifungal activity, we determined MIC values. The MIC was defined as the lowest drug concentration that led to turbidity (measured at 600 nm) of less than or equal to 35% of that of the untreated culture. As controls, we tested CSF, MCF, ANF, and RZF.
(§2) All of the tested compounds were dissolved in anhydrous DMSO to a concentration of 5 mg/mL. Candida strains were streaked from a glycerol stock onto YPAD agar plates and grown for 24 h at 30 °C. Colonies were suspended in 1 mL of PBS and diluted to an O.D. of 0.01 at 600 nm with YPAD broth and added into flat-bottom 96-well microplates (Corning) containing a gradient of twofold dilutions per tested compound with concentrations ranging from 64 to 0.0009 μg/mL. Control wells with no drug and blank wells without yeast cells containing YPAD only were also prepared. […] Each concentration was tested in triplicate, and results were confirmed by at least two independent sets of experiments.

[2] = system: C. glabrata; assay: as above; assay type: cell-based, Candida glabrata; settings: 24 h, 30 °C
Experimental: as §1, §2

[3] = system: HCT-116; assay: cells; assay type: cell-based; settings: Homo sapiens; HCT-116 expressing GFP, 24 h, mean ± SD; read-out: IC50 (cell viability)
Experimental: (§3) In this analysis, we used HCT-116, a human colorectal carcinoma cell line; UACC-62, a human melanoma cell line; Hs 578T, a human mammary gland carcinoma cell line, and SF-295, a human glioblastoma cell line. […] The highest concentration of the echinocandins used for the cell viability tests was determined based on the reported maximal plasma concentrations (Cmax) of ANF and RZF measured in humans. A Cmax of approximately 7 μM was measured during a pharmacokinetic study of ANF in patients with candidemia or invasive candidiasis who were treated with a 200 mg loading dose on day 1, followed by a daily 100 mg maintenance dose.[64]
(§4) Human cell lines HCT-116, UACC-62, Hs 578T, and SF-295 were obtained from the Life Sciences Core Facilities of the Nancy & Stephen Grand Israel National Center for Personalized Medicine. Cell lines were grown in an RPMI medium (Gibco, cat. no. 21875-034) supplemented with 10% fetal calf serum (Biological Industries, cat. no. 04-007-1A), Pen/Strep (Biological Industries, cat. no. 03-031-1B), and glutamine (Biological Industries, cat. no. 03-020-1B). GFP was introduced into cells using TALENS according to a previously reported protocol.[73] GFP cells were selected by FACS and propagated.
(§5) Assay-ready plates were designed using in-house software (CHEMPION, INCPM software development team) and prepared in 384-well Greiner plates (cat. no. 781091) using an Echo 555 Acoustic Liquid Handler (Labcyte). The final DMSO concentration in all samples was 0.4%. Prior to the experiment, cells were trypsinized and counted using a Countess cytometer. Cells were then diluted to 40,000 cells/mL in a fresh medium. Cells (50 μL/well; 2000 cells/well) were then dispensed with a Thermo Combi dispenser into plates containing predispensed compounds. After 30 min at room temperature to ensure uniform adherence of cells, the plates were moved to an automated incubator (Liconic STX44) and incubated at 37 °C. An automated confocal microscope with a 4× S Fluor lens (Molecular Devices ImageExpress) was used to acquire images of GFP-expressing cells after 24 h of incubation. Images were then analyzed using MetaExpress with a custom protocol (Custom Module Editor), and data were annotated and normalized using Genedata Screener software. Final normalized data were then loaded into CDD Vault software for comparative data visualization.

[4] = system: SF-295; assay: cells; assay type: cell-based; settings: Homo sapiens; SF-295 expressing GFP, 24 h, mean ± SD; read-out: IC50 (cell viability)
Experimental: as §3, §4, §5

[5] = system: UACC-62; assay: cells; assay type: cell-based; settings: Homo sapiens; UACC-62 expressing GFP, 24 h, mean ± SD; read-out: IC50 (cell viability)
Experimental: as §3, §4, §5

[6] = system: THLE-2 cells; assay: cells; assay type: cell-based; settings: Homo sapiens
Experimental: The effects of ANF and RZF and their dehydroxylated derivatives 1 and 2 on the viability of human cells were further evaluated in an assay with THLE-2 cells, which are a transformed human liver epithelial cell line. These cells express phenotypic characteristics of normal adult liver epithelial cells.
THLE-2 cells (ATCC, cat. no. CRL2706) were cultured in 384-well plates coated with BEBM (Lonza, cat. no CC3170) containing 100 μg/mL BSA, 1:100 fibronectin (Sigma, cat. no. F0895), and a 1:100 PureCol EZ Gel Solution (Sigma, cat. no. 5074) for 50–60 min at 37 °C. THLE-2 cells were plated at a density of 2.5 × 10^3 cells/well in the coated plates in a total volume of 20 μL. Culture media were BEGM supplemented with 5 ng/mL hEGF (Sigma, cat. no. E5036), 70 ng/mL phosphoethanolamine (Sigma, cat. no. P0503), and 10% fetal bovine serum. Plates were incubated overnight at 37 °C, 95% humidity, and 5% CO2. The culture medium was replaced with 50 μL of a fresh medium, and compounds were applied to the cells in triplicate. Plates were cultured for another 72 h, and ATP was quantified using a CellTiter-Glo kit (Promega #G7573) according to the manufacturer’s protocol. The luminescence signal was detected using a PHERAstar FS (BMG Labtech).

CCCCCOc1ccc(-c2ccc(-c3ccc(C(=O)N[C@H]4C[C@@H](O)[C@@H](O)NC(=O)[C@@H]5[C@@H](O)[C@@H](C)CN5C(=O)[C@H]([C@@H](C)O)NC(=O)[C@H]([C@H](O)[C@@H](O)c5ccc(O)cc5)NC(=O)[C@@H]5C[C@@H](O)CN5C(=O)[C@H]([C@@H](C)O)NC4=O)cc3)cc2)cc1 [ANF, anidulafungin] ({pTerphenylCO(4''-OnC5H11)}-[Orn(4R-OH,5R-OH)]T[Hyp][hTyr(3S-OH,4S-OH)]T[Pro(3S-OH,4S-Me)]; lactam 1-C)
MIC ([1]; #1 C. albicans Sc5314): 0.004 µg/mL (≈ 0.00351 µM)
MIC ([1]; #2 C. albicans DPL1015 (DP-A15)): 0.063 µg/mL (≈ 0.0553 µM)
MIC ([1]; #3 C. albicans DPL1016 (DP-A15-10)): 4 µg/mL (≈ 3.51 µM)
MIC ([1]; #4 C. albicans T-2068 (DP-C42)): 2 µg/mL (≈ 1.75 µM)
MIC ([1]; #5 C. albicans T-2069 (DP-85)): 2 µg/mL (≈ 1.75 µM)
MIC ([1]; #6 C. albicans (DP-89)): 2 µg/mL (≈ 1.75 µM)
MIC ([1]; #7 C. albicans T-2076 (DP-194)): 0.5 µg/mL (≈ 0.438 µM)
MIC ([1]; #8 C. albicans T-2077 (DP-205)): 0.5 µg/mL (≈ 0.438 µM)
MIC ([2]; #9 C. glabrata EF1620): 0.008 µg/mL (≈ 0.00702 µM)
MIC ([2]; #10 C. glabrata TGL00277): > 64 µg/mL
MIC ([2]; #11 C. glabrata TGL00275): 4 µg/mL (≈ 3.51 µM)
MIC ([2]; #12 C. glabrata CST78): 0.004 µg/mL (≈ 0.00351 µM)
MIC ([2]; #13 C. glabrata TGL00265): 4 µg/mL (≈ 3.51 µM)
MIC ([2]; #14 C. glabrata TGL00264): 32 µg/mL (≈ 28.1 µM)
MIC ([2]; #15 C. glabrata TGL00263): 2 µg/mL (≈ 1.75 µM)
MIC ([2]; #16 C. glabrata TGL00065): 8 µg/mL (≈ 7.02 µM)
MIC ([2]; #17 C. glabrata CST34): 0.008 µg/mL (≈ 0.00702 µM)
MIC ([2]; #18 C. glabrata TGL00258): > 64 µg/mL
MIC ([2]; #19 C. glabrata TGL00256): 2 µg/mL (≈ 1.75 µM)
MIC ([2]; #20 C. glabrata TGL00107): > 64 µg/mL
MIC ([2]; #21 C. glabrata TGL00056): > 64 µg/mL
MIC ([2]; #22 C. glabrata M12): 0.002 µg/mL (≈ 0.00175 µM)
MIC ([2]; #23 C. glabrata TGL00270): 4 µg/mL (≈ 3.51 µM)
MIC ([2]; #24 C. glabrata TGL00269): 0.25 µg/mL (≈ 0.219 µM)
MIC ([2]; #25 C. glabrata TGL00268): > 64 µg/mL
MIC ([2]; #26 C. glabrata TGL00268): > 64 µg/mL
MIC ([2]; #27 C. glabrata EB0911): 0.004 µg/mL (≈ 0.00351 µM)
MIC ([2]; #28 C. glabrata TGL00261): 2 µg/mL (≈ 1.75 µM)
MIC ([2]; #29 C. glabrata TGL00109): > 64 µg/mL
MIC ([2]; #30 C. glabrata TGL00259): 16 µg/mL (≈ 14 µM)
IC50 [3]: > 40 µM
IC50 [4]: 19.3 ± 1.97 µM
IC50 [5]: 34.5 ± 4.15 µM
IC50 ([6]; THLE-2, 72 h of incubation, ranges for ANF and 1 and for RZF and 2 stated jointly, read-out: IC50 value (THLE-2 viability)): 36 to 41 µM
IC50 ([6]; THLE-2, 72 h, ATP luminescence, read-out: IC50 (cell viability)): 40.6 ± 2.9 µM
